Drawing on ChEMBL document CHEMBL5257063, “Dendrillic Acids A and B: Nitrogenous, Rearranged Spongian Nor-Diterpenes from a Dendrilla sp. Marine Sponge” (J Nat Prod, 2023), this text covers MIC and MCC for six compounds.

The test system of data set [1] is Candida albicans. Kind of data set: Antifungal activity against Candida albicans ATCC 10231 measured after 48 hrs by bromocresol green reagent based assay. In kind it is functional.
For data set [2], the system named is Saccharomyces cerevisiae. Put plainly: Antifungal activity against Saccharomyces cerevisiae ATCC 9763 measured after 48 hrs by bromocresol green reagent based assay. In kind it is functional.
The subject of data set [3] is Tritrichomonas foetus. Kind of data set: Anti-protozoal activity against Tritrichomonas foetus KV-1 measured after 72 hrs under anaerobic conditions. The format is functional.
The test system of data set [4] is Giardia intestinalis. Put plainly: Antiparasitic activity against Giardia duodenalis WB-1B 713 assessed as parasite growth inhibition measured after 96 hrs under anaerobic conditions. In kind it is functional.
Data set [5] can be described thus: Cytotoxicity against mouse NS-1 cells incubated for 96 hrs by resazurin dye based assay. The format is functional.
Data set [6] is described as follows: Cytotoxicity against human NFF cells incubated for 96 hrs by resazurin dye based assay. In kind it is toxicity, cell-based. The following applies: read-out: MIC.
In data set [7] the test system is Bacillus subtilis. Put plainly: Antibacterial activity against Bacillus subtilis ATCC 6633 measured after 48 hrs by resazurin reagent based assay. In kind it is functional. On the technique in general: Resazurin is reduced to fluorescent resorufin, in cell work by metabolically active cells.
In data set [8] the test system is Staphylococcus aureus. Put plainly: Antibacterial activity against Staphylococcus aureus ATCC 25923 measured after 48 hrs by resazurin reagent based assay. In kind it is functional.

Molecules are shown by their SMILES. Values after ≈ are worked out from the molar mass of the structure shown.

With `C[C@@H]1c2c([C@@]3(C)CCCC(C)(C)C3)ccc(C(=O)O)c2C(=O)N1CC(=O)O`, the MIC is above 200 µg/mL in data set [1]; above 200 µg/mL in data set [2]; above 100 µg/mL in data set [3]; 100 µg/mL (≈ 268 µM) in data set [4]; above 100 µg/mL in data set [5]; above 100 µg/mL in data set [7]. The MIC in data set [8] is above 100 µg/mL. Also, in data set [6], the MCC at 96 h was above 100 µg/mL.
For `C[C@H]1c2c([C@@]3(C)CCCC(C)(C)C3)ccc(C(=O)O)c2C(=O)N1CC(=O)O`, the MIC in data set [1] was above 200 µg/mL; in data set [2], above 200 µg/mL; in data set [3] it was above 100 µg/mL; in data set [4] it was 50 µg/mL (≈ 134 µM); in data set [5], above 100 µg/mL; in data set [7], above 100 µg/mL. The MIC in data set [8] was above 100 µg/mL. The MCC at 96 h in data set [6] was above 100 µg/mL.
For the compound `CN(C)[C@@H]1C(O)=C(C(N)=O)C(=O)[C@@]2(O)C(O)=C3C(=O)c4c(O)cccc4[C@@](C)(O)[C@H]3C[C@@H]12` [TETRACYCLINE], the MIC in data set [7] worked out at 6.3 µg/mL (≈ 14.2 µM); in data set [8] it was 12.5 µg/mL (≈ 28.1 µM).
In the case of `Cc1ncc([N+](=O)[O-])n1CCO` [METRONIDAZOLE], the MIC in data set [3] stood at 0.2 µg/mL (≈ 1.17 µM); in data set [4], 0.3 µg/mL (≈ 1.75 µM).
Compound `CSC[S@@+]([O-])CC(CO)NC(=O)/C=C/c1c(C)[nH]c(=O)[nH]c1=O` (some centres undefined) [SPARSOMYCIN] returned an MIC in data set [5] of 0.6 µg/mL (≈ 1.66 µM). Besides, the MCC at 96 h in data set [6] was determined as 0.6 µg/mL.
For `CN(CC[C@H](N)CC(=O)N[C@H]1C=C[C@H](n2ccc(N)nc2=O)O[C@@H]1C(=O)O)C(=N)N.Cl`, the values for the MIC in data set [1] and in data set [2] were above 200 µg/mL and 3.1 µg/mL, respectively.
